Assay results as given in patent US9018142B2, “Oil-field biocide method utilizing a peracid” (PeroxyChem LLC, priority 2008, dated 2015).

Columns and labels:
[1] = system: Desulfotomaculum nigrificans (ATCC 19858); test: D. nigrificans growth after biocide exposure in 0.1 wt % polyacrylamide; assay type: cell-based; set-up: key to D. nigrificans Growth Results / D. nigrificans Growth Results, Neutral Control: positive (+); negative (NEG)
Procedure: Example 2 illustrates the biocidal efficacy of peracetic acid, compared with glutaraldehyde, against another strain of sulfur-reducing bacteria, Desulfotomaculum nigrificans, present in an aqueous solution also containing 0.1 wt % polyacrylamide polymer. A range of peracetic acid and glutaraldehyde concentrations were evaluated for biocidal efficacy: 1, 5, 10, 25, 50, 75, 100, 200 and 300 ppm peracetic acid and the same concentrations for glutaraldehyde (except that 300 ppm was omitted).
The dilute aqueous polyacrylamide was prepared using an aqueous 50 wt % polyacrylamide solution (Sigma-Aldrich, St. Louis, Mo.) and diluting the polyacrylamide with deionized water to obtain 0.1 wt % polyacrylamide in water. The peracetic acid was Vigor Ox® SP-15 antimicrobial agent, containing about 15-17 wt % peracetic acid, 9-11 wt % hydrogen peroxide and 33-38 wt % acetic acid in water (FMC Corporation, Philadelphia, Pa.), and this peracetic acid solution was diluted to the desired concentration within the range 1 to 300 ppm peracetic acid for the various evaluations. The glutaraldehyde used in this Example 2 was a 50 wt % glutaraldehyde solution in water (Alfa Aesar, Ward Hill, Mass.), diluted with deionized water to the desired concentration within the range 1 to 200 ppm for the evaluations.
The bacterial strain used in this Example 2 was the sulfur-reducing bacterium Desulfotomaculum nigrificans (ATCC 19858 from American Type Culture Collection, Manassas, Va.). A working inoculum for each of the three studies described below was prepared by the following procedure. Baar's medium for sulfate reducers was inoculated with D. nigrificans from a cryogenic tube, grown at 50° C. anaerobically for a period sufficient to observe good growth of the culture (evident by blackening of the tube), between 2-7 days. This D. nigrificans culture was used as the working inoculum for each of the studies described below.
The methodology used in this Example 2 was as follows. A sterilized screw-cap tube containing 9.5-10 ml 0.1 wt % polyacrylamide was dosed with an appropriate amount of peracetic acid (or glutaraldehyde) to provide the desired peracetic acid (or glutaraldehyde) concentration (e.g., 1 to 300 ppm peracetic acid) in 10 ml 0.1 wt % polyacrylamide required for the study. The tubes were then vortex mixed and 0.1 ml D. nigrificans inoculum was added and again vortex mixed. The initial inoculation level was estimated as about 2.6×10^6 CFU/tube. Timing of the exposure period (e.g., 1 minute to 1 day) was begun when the D. nigrificans inoculum was added.
After the exposure period had elapsed, 1 ml of the treated mixture was added to a second tube containing 9 ml of Dey-Engley (D/E) neutralizing broth and vortex mixed. After about 5-8 minutes had elapsed, 1 ml of the neutralized solution was added to yet another tube containing 9 ml of Baar's modified medium for sulfate reducers. This tube was vortex mixed and then incubated anaerobically at 50° C., with the screw cap loosened, using an AnaeroPack (Mitsubishi Gas Chemical America, Inc., New York, N.Y.) in an anaerobic jar.
Growth controls were also carried out in the studies of this Example 2, using the following procedure. A screw-cap tube containing 10 ml of 0.1 wt % polyacrylamide was inoculated with 0.1 ml of D. nigrificans culture and then diluted in D/E neutralizing broth after the exposure period, vortex mixed, and then diluted in Baar's medium as described above. The control tubes were incubated at 50° C., also as described above, and monitored for growth after two days.
Neutralizing controls were also carried out for the peracetic acid and glutaraldehyde treatment agents to confirm that D/E neutralizing broth (which contains sodium bisulfite and […] among its neutralizing agents) was capable of neutralizing either peracetic acid or glutaraldehyde at the highest concentration used in each study. […]

[2] = at 25° C.; cited from earlier work

For Peracetic acid, the “biocidal control of D. nigrificans” value ([1]; first study, 1 ppm, 5 ppm or 10 ppm, any of the exposure times) was “no biocidal control”, the “D. nigrificans Growth Results” value ([1]; first study, 1 ppm, 1 minute exposure) was “+” and the “D. nigrificans Growth Results” value ([1]; first study, 1 ppm, 1 hour exposure) was “+”. For the same substance, the “D. nigrificans Growth Results” value ([1]; first study, 1 ppm, 1 day exposure) was “+”, the “D. nigrificans Growth Results” value ([1]; first study, 5 ppm, 1 minute exposure) was “+” and the “D. nigrificans Growth Results” value ([1]; first study, 5 ppm, 1 hour exposure) was “+”. The “D. nigrificans Growth Results” value ([1]; first study, 5 ppm, 1 day exposure) was “+”, the “D. nigrificans Growth Results” value ([1]; first study, 10 ppm, 1 minute exposure) was “+” and the “D. nigrificans Growth Results” value ([1]; first study, 10 ppm, 1 hour exposure) was “+”. The “D. nigrificans Growth Results” value ([1]; first study, 10 ppm, 1 day exposure) was “+”, the “biocidal control of D. nigrificans” value ([1]; first study, 25 ppm and 50 ppm, 1 day exposure) was “provided biocidal control” and the “D. nigrificans Growth Results” value ([1]; first study, 25 ppm, 1 minute exposure) was “+”. The “D. nigrificans Growth Results” value ([1]; first study, 25 ppm, 1 hour exposure) was “+”, the “D. nigrificans Growth Results” value ([1]; first study, 25 ppm, 1 day exposure) was “NEG” and the “D. nigrificans Growth Results, Neutral Control” value ([1]; first study, 50 ppm biocide neutralized in D/E neutralizing broth before inoculation) was “+”. The “D. nigrificans Growth Results” value ([1]; first study, 50 ppm, 1 minute exposure) was “+”, the “D. nigrificans Growth Results” value ([1]; first study, 50 ppm, 1 hour exposure) was “NEG and +” and the “D. nigrificans Growth Results” value ([1]; first study, 50 ppm, 1 day exposure) was “NEG”. The “biocidal activity against D. nigrificans” value ([1]; first study, 50 ppm, one hour, NEG for one of the two replicates) was “some biocidal activity”, the “biocidal control of D. nigrificans” value ([1]; second study, 50, 75, 100 and 200 ppm, 1 day exposure) was “provided biocidal control” and the “D. nigrificans Growth Results” value ([1]; second study, 50 ppm, 10 minutes exposure) was “+”. The “D. nigrificans Growth Results” value ([1]; second study, 50 ppm, 1 hour exposure) was “+”, the “D. nigrificans Growth Results” value ([1]; second study, 50 ppm, 1 day exposure) was “NEG” and the “D. nigrificans Growth Results” value ([1]; second study, 75 ppm, 10 minutes exposure) was “+”. The “D. nigrificans Growth Results” value ([1]; second study, 75 ppm, 1 hour exposure) was “NEG”, the “D. nigrificans Growth Results” value ([1]; second study, 75 ppm, 1 day exposure) was “NEG” and the “D. nigrificans Growth Results” value ([1]; second study, 100 ppm, 10 minutes exposure) was “+”. The “D. nigrificans Growth Results” value ([1]; second study, 100 ppm, 1 hour exposure) was “NEG and +”, the “D. nigrificans Growth Results” value ([1]; second study, 100 ppm, 1 day exposure) was “NEG” and the “D. nigrificans Growth Results, Neutral Control” value ([1]; second study, 200 ppm biocide neutralized in D/E neutralizing broth before inoculation) was “+”. The “D. nigrificans Growth Results” value ([1]; second study, 200 ppm, 10 minutes exposure) was “+”, the “D. nigrificans Growth Results” value ([1]; second study, 200 ppm, 1 hour exposure) was “NEG” and the “D. nigrificans Growth Results” value ([1]; second study, 200 ppm, 1 day exposure) was “NEG”. For the same substance, the “biocidal activity against D. nigrificans” value ([1]; second study, 10 minutes exposure, any of the concentrations) was “no biocidal activity”, the “biocidal activity against D. nigrificans” value ([1]; second study, 1 hour exposure, 75 ppm, 100 ppm (1 of 2 replicates), 200 ppm) was “demonstrated biocidal activity” and the “D. nigrificans Growth Results” value ([1]; third study, 100 ppm, 10 minutes exposure) was “+”. The “D. nigrificans Growth Results” value ([1]; third study, 100 ppm, 30 minutes exposure) was “+ and NEG”, the “D. nigrificans Growth Results” value ([1]; third study, 100 ppm, 60 minutes exposure) was “NEG and +” and the “D. nigrificans Growth Results” value ([1]; third study, 200 ppm, 10 minutes exposure) was “+”. For the same substance, the “D. nigrificans Growth Results” value ([1]; third study, 200 ppm, 30 minutes exposure) was “NEG”, the “D. nigrificans Growth Results” value ([1]; third study, 200 ppm, 60 minutes exposure) was “NEG” and the “D. nigrificans Growth Results, Neutral Control” value ([1]; third study, 300 ppm peracetic acid neutralized in D/E neutralizing broth before inoculation) was “+”. For the same substance, the “D. nigrificans Growth Results” value ([1]; third study, 300 ppm, 10 minutes exposure) was “NEG”, the “D. nigrificans Growth Results” value ([1]; third study, 300 ppm, 30 minutes exposure) was “NEG” and the “D. nigrificans Growth Results” value ([1]; third study, 300 ppm, 60 minutes exposure) was “NEG and +”. The “biocidal activity against D. nigrificans” value ([1]; third study, 30 minutes, 100 ppm (2 of 3 replicates), 200 ppm, 300 ppm) was “demonstrated biocidal activity”, the “biocidal control of D. nigrificans” value ([1]; third study, 60 minutes, 100 ppm (2 of 3 replicates), 200 ppm, 300 ppm (2 of 3 replicates)) was “provided biocidal control” and the “biocidal activity against D. nigrificans” value ([1]; third study, ten minutes, 100 and 200 ppm) was “did not exhibit biocidal activity”. For the same substance, the “biocidal control of D. nigrificans” value ([1]; third study, ten minutes, 300 ppm) was “exhibited biocidal control” and the pKa [2] was “about 8.2”.
